PubChem BioAssay AID2060620 (Molecular Pharmacology Branch, DTP, NCI, 2025)
Where “and” joins values, the source holds several entries; their conditions need not be identical. Equal entries are not always repeated.

Tested on: 328373-195-R-J1-PDC complex spheroids, viability % test/control
Assay: Anticancer human tumor 328373-195-R-J1-PDC patient-derived head and neck squamous carcinoma cell line growth inhibition [CLK]
Settings: for viability, T/C: stronger effect = lower value
Text: A high-throughput screen of multi-cell type tumor spheroids was designed to identify active combinations of […] and targeted small molecules. Complex spheroids include a stromal component modeled by human endothelial cells (HUVEC) and fibroblasts modeled by human mesenchymal stem cells (MSCs). The concentration ranges selected for each drug and investigational agent were based upon clinically achievable concentrations if the clinical Cmax of the agent was known.
Compounds. The drugs and investigational agents: cirtuvivint (SM08502; NSC835563), CC-671 (NSC850746), vemurafenib (NSC761431), tapotoclax (NSC804041), sotorasib (NSC818433), adagrasib (NSC831453), MRTX-1133 (NSC836407), BAY2416964 (NSC825713), copanlisib (NSC816437), inavolisib (NSC800729), abemaciclib (NSC768073), osimertinib (NSC779217), entinostat (NSC756642), eltanexor (KPT-8602, NSC794443), venetoclax (NSC766270), ceralasertib (NSC777638), bortezomib (NSC756655), olaparib (NSC753686), talazoparib (NSC767125), alisertib (NSC759677), peposertib (NSC802822), gemcitabine (NSC613327), 5-fluorouracil (NSC19893), SN-38 (NSC673596), oxaliplatin (NSC266046), paclitaxel (NSC125973), and doxorubicin (NSC123127), were obtained from the National Cancer Institute (NCI) Developmental Therapeutics Program Chemical Repository. The FDA-approved anticancer drug set is available from the Developmental Therapeutics Program at https://dtp.cancer.gov/organization/dscb/obtaining/available plates.htm. […] The stock solutions were prepared in dimethyl sulfoxide (DMSO, Sigma-Aldrich, St. Louis, MO, cat. D2650), except for the platinum complexes which were prepared in saline (Quality Biological, Gaithersburg, MD, cat. 114-055-101), at 800-fold the tested concentration and stored at -70 degrees C prior to their use. All drugs and investigational agents were tested over a range starting from a high concentration at or near the clinical Cmax and decreasing in half-log increments. If the clinical Cmax for an agent had not been determined, the highest concentration tested was 10 microM.
Cell Culture. All cells were maintained in an incubator at 37 degrees C and 5% CO2 with 95% humidity. The PDC lines were cultured according to standard operating procedures established by the NCI PDMR. Briefly, all PDCs were thawed and cultured in Matrigel-coated flasks prepared with a working solution of 1X Ham's F-12 nutrient mix, without supplementation (Invitrogen, Waltham, MA, cat. 11765054), 100 U/mL penicillin-streptomycin (Invitrogen, cat. 15140122), and 2.5% Matrigel (Corning Inc., Corning, NY, cat. 354248) for the first three passages. The 947758-054-R-J2-PDC line was cultured in 6B/Colon 1A media, which includes advanced DMEM/F-12 (Thermo Fisher Scientific, cat. 12634028), 10 mM HEPES (Thermo Fisher Scientific, cat. 15630080), 1X GlutaMAX supplement (Thermo Fisher Scientific, cat. 35050061), 0.1 mg/mL primocin (InvivoGen, cat. ant-pm-2), 10% defined fetal bovine serum, heat inactivated (HyClone Laboratories Inc., cat. SH30070.03HI), 1.25 mM N-Acetyl-L-cysteine (Sigma-Aldrich, cat. A9165), 10 mM nicotinamide (Sigma-Aldrich, cat. N0636), 1X B-27 supplement (Thermo Fisher Scientific, cat. 17504044), 1X N-2 supplement (Thermo Fisher Scientific, cat. 17502048), and 10 microM Y-27632 dihydrochloride (Tocris Bioscience, cat. 1254). The 876862-298-R-J1-PDC was cultured in 6E media, which includes all 6B/Colon 1A media components plus 50% L-WRN conditioned media (ATCC, cat. CRL-3276), 50 ng/mL recombinant human EGF recombinant protein (hEGF; Thermo Fisher Scientific, cat. PHG0311), 10 ng/mL recombinant human fibroblast growth factor 10 (hGFG-10; PeproTech, cat. 100-26), 1 ng/mL recombinant human fibroblast growth factor 2 (hFGF-2; PeproTech, cat. 100-18B), and 1 µM prostaglandin E2 (PGE2; Tocris, cat. 2296). The 227483-062-R1-J1-PDC line was cultured in Panc media, containing all 6E components except hFGF-2, with the addition of 500 nM SB-431542 (Selleckchem, cat. S1067) and 10 nM gastrin (Tocris, cat. 3006). […]

[1] = curve of first compound, second compound 0.0316 µM
[2] = curve of first compound, second compound 0.1 µM
[3] = curve of first compound, second compound 0.316 µM
[4] = curve of first compound, second compound 1 µM
[5] = curve of first compound, second compound 3.16 µM
[6] = curve of first compound, second compound 10 µM
[7] = second compound 0.0316 µM, first compound 0.0316 µM
[8] = second compound 0.0316 µM, first compound 0.1 µM
[9] = second compound 0.0316 µM, first compound 0.316 µM
[10] = second compound 0.0316 µM, first compound 1 µM
[11] = second compound 0.1 µM, first compound 0.0316 µM
[12] = second compound 0.1 µM, first compound 0.1 µM
[13] = second compound 0.1 µM, first compound 0.316 µM
[14] = second compound 0.1 µM, first compound 1 µM
[15] = second compound 0.316 µM, first compound 0.0316 µM
[16] = second compound 0.316 µM, first compound 0.1 µM
[17] = second compound 0.316 µM, first compound 0.316 µM
[18] = second compound 0.316 µM, first compound 1 µM
[19] = second compound 1 µM, first compound 0.0316 µM
[20] = second compound 1 µM, first compound 0.1 µM
[21] = second compound 1 µM, first compound 0.316 µM
[22] = second compound 1 µM, first compound 1 µM
[23] = second compound 3.16 µM, first compound 0.0316 µM
[24] = second compound 3.16 µM, first compound 0.1 µM
[25] = second compound 3.16 µM, first compound 0.316 µM
[26] = second compound 3.16 µM, first compound 1 µM
[27] = second compound 10 µM, first compound 0.0316 µM
[28] = second compound 10 µM, first compound 0.1 µM
[29] = second compound 10 µM, first compound 0.316 µM
[30] = second compound 10 µM, first compound 1 µM
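Note: spheroids exposed to the agents for 7 days.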

## O=c1[nH]cc(F)c(=O)[nH]1 + CNC(=O)c1ccc(Nc2nc(OC3CCCC3)c3c(-c4ccc5nc(C)oc5c4)c[nH]c3n2)c(OC)c1
[1]
  IC50: < 31.6 nM
[2]
  IC50: < 31.6 nM
[3]
  IC50: < 31.6 nM
[4]
  IC50: < 31.6 nM
[5]
  IC50: < 31.6 nM
[6]
  IC50: < 31.6 nM
[7]
  viability, T/C: 37%
[8]
  viability, T/C: 18.3%
[9]
  viability, T/C: 8.48%
[10]
  viability, T/C: 5.66%
Second compound 0.0316 µM, first compound 3.16 µM
  viability, T/C: 6.31%
Second compound 0.0316 µM, first compound 10 µM
  viability, T/C: 11.2%
[11]
  viability, T/C: 8.64%
[12]
  viability, T/C: 5.34%
[13]
  viability, T/C: 5%
[14]
  viability, T/C: 3.23%
Second compound 0.1 µM, first compound 3.16 µM
  viability, T/C: 2.62%
Second compound 0.1 µM, first compound 10 µM
  viability, T/C: 7.23%
[15]
  viability, T/C: 7.44%
[16]
  viability, T/C: 6.09%
[17]
  viability, T/C: 4.45%
[18]
  viability, T/C: 4.15%
Second compound 0.316 µM, first compound 3.16 µM
  viability, T/C: 4.13%
Second compound 0.316 µM, first compound 10 µM
  viability, T/C: 6.8%
[19]
  viability, T/C: 8.18%
[20]
  viability, T/C: 7.54%
[21]
  viability, T/C: 3.88%
[22]
  viability, T/C: 2.98%
Second compound 1 µM, first compound 3.16 µM
  viability, T/C: 2.83%
Second compound 1 µM, first compound 10 µM
  viability, T/C: 4.21%
[23]
  viability, T/C: 11%
[24]
  viability, T/C: 7.15%
[25]
  viability, T/C: 3.65%
[26]
  viability, T/C: 2.93%
Second compound 3.16 µM, first compound 3.16 µM
  viability, T/C: 3.84%
Second compound 3.16 µM, first compound 10 µM
  viability, T/C: 4.43%
[27]
  viability, T/C: 12.2%
[28]
  viability, T/C: 8.27%
[29]
  viability, T/C: 4.41%
[30]
  viability, T/C: 3.11%
Second compound 10 µM, first compound 3.16 µM
  viability, T/C: 3.46%
Second compound 10 µM, first compound 10 µM
  viability, T/C: 1.56%

## COc1c(OCCCN2CCOCC2)ccc2c3n(c(=NC(=O)c4cnc(N)nc4)nc12)CCN3
Compound 0.00316 µM
  viability, T/C: 98.7% and 88.6%
Compound 0.01 µM
  viability, T/C: 87.2% and 84.5%
Compound 0.0316 µM
  viability, T/C: 64.5% and 74.9%
Compound 0.1 µM
  viability, T/C: 51.9% and 66.5%
Compound 0.316 µM
  viability, T/C: 19.2% and 24.7%
Compound 1 µM
  viability, T/C: 10.7% and 7.66%
Curve of compound
  IC50: 80.1 nM and 152 nM

## COc1c(OCCCN2CCOCC2)ccc2c3n(c(=NC(=O)c4cnc(N)nc4)nc12)CCN3 + CN1CCN(c2cc(C(=O)Nc3cc4cc(-c5cnn(C)c5)ccc4cn3)ccn2)CC1
[1]
  IC50: 126 nM
[2]
  IC50: 79.9 nM
[3]
  IC50: < 3.16 nM
[4]
  IC50: < 3.16 nM
[5]
  IC50: < 3.16 nM
[6]
  IC50: < 3.16 nM
Second compound 0.0316 µM, first compound 0.00316 µM
  viability, T/C: 95.8%
Second compound 0.0316 µM, first compound 0.01 µM
  viability, T/C: 93.9%
[7]
  viability, T/C: 77.9%
[8]
  viability, T/C: 52.7%
[9]
  viability, T/C: 31.9%
[10]
  viability, T/C: 9.52%
Second compound 0.1 µM, first compound 0.00316 µM
  viability, T/C: 71.7%
Second compound 0.1 µM, first compound 0.01 µM
  viability, T/C: 77.8%
[11]
  viability, T/C: 63.5%
[12]
  viability, T/C: 46.4%
[13]
  viability, T/C: 23.2%
[14]
  viability, T/C: 10.4%
Second compound 0.316 µM, first compound 0.00316 µM
  viability, T/C: 32.5%
Second compound 0.316 µM, first compound 0.01 µM
  viability, T/C: 35.3%
[15]
  viability, T/C: 20.4%
[16]
  viability, T/C: 17.1%
[17]
  viability, T/C: 7.35%
[18]
  viability, T/C: 4.17%
Second compound 1 µM, first compound 0.00316 µM
  viability, T/C: 0.2%
Second compound 1 µM, first compound 0.01 µM
  viability, T/C: 1.02%
[19]
  viability, T/C: 0.29%
[20]
  viability, T/C: 0.33%
[21]
  viability, T/C: 0.18%
[22]
  viability, T/C: 4.25%
Second compound 3.16 µM, first compound 0.00316 µM
  viability, T/C: 0.08%
Second compound 3.16 µM, first compound 0.01 µM
  viability, T/C: 3.15%
[23]
  viability, T/C: 0.9%
[24]
  viability, T/C: 0.09%
[25]
  viability, T/C: 2.94%
[26]
  viability, T/C: 0.12%
Second compound 10 µM, first compound 0.00316 µM
  viability, T/C: 0.62%
Second compound 10 µM, first compound 0.01 µM
  viability, T/C: 2.77%
[27]
  viability, T/C: 0.15%
[28]
  viability, T/C: 0.14%
[29]
  viability, T/C: 1.52%
[30]
  viability, T/C: 1.72%
